Test results taken from patent publication US8809358B2, “Use of IκB-kinase inhibitors in pain therapy” (Sanofi-Aventis Deutschland GmbH, priority 2002, dated 2014).

Key:
[1] = test system: Zymosan-induced paw inflammation; assay: Zymosan-induced paw inflammation in the rat: paw withdrawal threshold during mechanical stimulation (von Frey test); format: in vivo; conditions: for Change in the paw withdrawal threshold (%): 30 mg/kg i.p. 15 min before, 2.5 and 5.5 h after Zymosan
Procedure: (§1) • Zymosan-induced paw inflammation in the rat; • Parameter: paw withdrawal time or paw withdrawal threshold during thermal or mechanical stimulation of the hind paw. 2nd Model: • Kaolin/carrageenan-induced knee joint inflammation in the rat; • Parameter: reaction of spinal neurons during pressure stimulation of the knee. Model 1
(§2) Experimental implementation: in short-term anesthesia using isoflurane, 1 mg of Zymosan (as a suspension in 100 μl of PBS (phosphate-buffered salt solution)) was injected subcutaneously into the middle of the plantar side of one of the experimental animal's hind paws. After that, two different behavioral tests were used to quantitatively determine the development of a hyperalgesia.
b) Determining the Paw Withdrawal Threshold During Mechanical Stimulation (von Frey Test)
The experimental animal was placed in a transparent plastic chamber whose floor consisted of wire-gauze. Punctuate pressure of defined strength was produced using calibrated nylon fibers, what are termed von Frey hairs. The weakest pressure stimulation during which the animal withdrew its paw determines the mechanical pain threshold.
(§3) About half an hour before, and at various times after, the Zymosan injection, the thermal and mechanical pain thresholds were determined on the right hind paw and on the left hind paw (see Tables 1, 2). The decrease in the ipsilateral pain threshold, expressed in % of the contralateral pain threshold, was then calculated (see Tables 1, 2). The degree of hyperalgesia is directly proportional to the magnitude of this decrease.
(§4) In a control group, the Zymosan injection induced pronounced mechanical and thermal hyperalgesia (see control data in Tabs. 1 and 2).

[2] = test system: Kaolin/carrageenan-induced knee joint inflammation; assay: Kaolin/carrageenan-induced knee joint inflammation in the rat: reaction of spinal neurons during pressure stimulation of the knee; format: in vivo
Description: as §1
Experimental implementation: In rats which were under sodium thiopental anesthesia, the spinal canal was opened and spinal medullary neurons which processed the “pain impulses” from the knee-joint were identified. Following identification, a long-term recording, in which the activity of the nerve cell was recorded before and during the development of an acute inflammation in the knee-joint, was carried out. For this, the responses to non-noxious and noxious stimulation at the knee-joint were measured in a control period before inducing the inflammation and for several hours after inducing the inflammation.
The acute inflammation was induced by the intraarticular injection of a suspension (about 150 μl) of kaolin and carrageenan. In controlled experiments, only the vehicle was applied to the spinal medullary surface in order to represent the development of the hyperexcitability under control conditions. As a rule, this development of hyperexcitability took place within 2 to 4 hours and was expressed in a marked increase in the responses to non-noxious and noxious stimulation of the knee-joint (Tab. 3). […] The responses of the cell to non-noxious and noxious stimulation were then subsequently monitored as in the control experiments.

[3] = test system: Zymosan-induced paw inflammation; assay: Zymosan-induced paw inflammation in the rat: paw withdrawal time during thermal stimulation (Hargreaves test); format: in vivo; conditions: for Change in the paw withdrawal time (%): 30 mg/kg i.p. 15 min before, 2.5 and 5.5 h after Zymosan
Procedure: as §1, §2
a) Determining the Paw Withdrawal Time During Thermal Stimulation (Hargreaves Test).
The experimental animal was placed in a transparent plastic chamber having a glass floor. As soon as the experimental animal was no longer moving, following the reconnaissance phase (about 5 min), an infrared light source was positioned directly below the hind paw to be stimulated and switched on. The lamp emitted focused infrared light of increasing intensity, such that the skin temperature of the hind paw increased almost linearly. As soon as the animal withdrew the paw, the lamp switched itself off. The temperature of the paw at the time it is withdrawn has just become unpleasant for the animal; this is referred to as the thermal pain threshold.
as §3, §4

[4] = test system: Zymosan-induced paw inflammation; assay: Zymosan-induced paw inflammation in the mouse: spontaneous running performance in a running wheel; format: in vivo, C57/B6 mice; conditions: for Statistical difference as compared with the vehicle: running wheel AUC, seven days
Procedure: 4th Model: • Zymosan-induced paw inflammation in the mouse; • Parameter: spontaneous running performance in a running wheel. In the cage in which it is kept, the experimental animal has access to a running wheel, the revolutions of which are recorded electronically. During the night hours, the C57/B6 mice use the running wheel voluntarily and, after a one-week phase of acclimatization, cover on average 4 100 meters/night. After zymosan has been injected, the distance run each night is reduced. This reduction in running performance is a valid parameter for a restriction in function which is due to inflammation pain. Experimental implementation: After an acclimatization phase of one week, the distance run/24 hours was measured in order to determine the base line. 25 μl of a suspension containing 50 mg of zymosan/ml were then injected into the right hind paw of the experimental animal during short-term anesthesia using isoflurane. The distance run/24 hours was then determined during the following seven days. In the analysis, the area under the curve for the values for the distance run was determined (AUC, tab. 7): the lower the AUC, the lower was the running performance during the week following injection of the zymosan. […] The substance was administered for the first time on day 1 after injection of the zymosan.

Structure (SMILES): CNc1nccc(-c2cc3cc(C(=O)N[C@@H](CN(c4ccccc4)c4ccccc4)c4n[nH]c(=O)o4)ccc3[nH]2)n1 [Compound 13, N—[(S)-2-diphenylamino-1-(5-oxo-4,5-dihydro[1,3,4]oxadiazol-2-yl)ethyl]-2-(2-methylaminopyrimidin-4-yl)-1H-indole-5-carboxamide]
- onset of the effect on mechanical hyperalgesia after Zymosan injection ([1]; 30 mg/kg i.p.): 1 h
- Change in the paw withdrawal threshold (%) ([1]; 2 h after Zymosan injection): −36.0%
- Change in the paw withdrawal threshold (%) ([1]; 24 h after Zymosan injection): −9.7%
- Change in the paw withdrawal threshold (%) ([1]; Baseline −0.5 h): 0.0%
- mechanical hyperalgesia ([1]; 30 mg/kg i.p. three times): significantly reduced
- persistence of the effect on mechanical hyperalgesia after the last administration ([1]; 30 mg/kg i.p. three times): ≥ 18 h
- activity in the test model ([1]; mechanical hyperalgesia): very strong
- Neuronal responses before and during knee-joint inflammation (imp/15 s), mean value ([2]; Non-noxious stimulation at the knee-joint, about 30 μl of 10 μM solution on spinal medulla, Baseline): 0.92 imp/15 s
- Neuronal responses before and during knee-joint inflammation (imp/15 s), mean value ([2]; Noxious stimulation at the knee-joint, about 30 μl of 10 μM solution on spinal medulla, 120-180 min after K/C injection): 8.5 imp/15 s
- Neuronal responses before and during knee-joint inflammation (imp/15 s), mean value ([2]; Noxious stimulation at the knee-joint, about 30 μl of 10 μM solution on spinal medulla, Baseline): 0.8 imp/15 s
- development of spinal hyperexcitability compared with the controls ([2]; rat, about 30 μl of 10 μM solution on spinal medulla): almost completely suppressed
- effect on the responses to noxious knee-joint stimulation compared with indomethacin ([2]; rat, comparison with published data from an earlier study): more strongly expressed
- Change in the paw withdrawal time (%) ([3]; 4 h after Zymosan injection): −16.0%
- Change in the paw withdrawal time (%) ([3]; 5 h after Zymosan injection): −9.7%
- Change in the paw withdrawal time (%) ([3]; 6 h after Zymosan injection): 5.0%
- Change in the paw withdrawal time (%) ([3]; 7 h after Zymosan injection): 3.4%
- Change in the paw withdrawal time (%) ([3]; 24 h after Zymosan injection): −3.8%
- Change in the paw withdrawal time (%) ([3]; Baseline −0.5 h): 0.0%
- persistence of the effect on thermal hyperalgesia after the last administration ([3]; 30 mg/kg i.p. three times): ≥ 18 h
- side difference in the paw withdrawal time ([3]; 30 mg/kg i.p., after the third administration of the substance): no longer possible to observe any side difference at all
- thermal hyperalgesia compared with the control group ([3]; 30 mg/kg i.p., from two hours after Zymosan injection onward): less pronounced
- reduction of thermal hyperalgesia compared with the NSAID diclofenac ([3]; comparative data from a study carried out previously): considerably more powerfully
- activity in the test model ([3]; thermal hyperalgesia): very strong
- distance run as compared with the vehicle group ([4]; mouse, 7 days, both the higher doses): dose-dependent increase
- Statistical difference as compared with the vehicle ([4]; 2.8 mg/kg twice daily): no
- Statistical difference as compared with the vehicle ([4]; 25 mg/kg twice daily): yes
- Statistical difference as compared with the vehicle ([4]; 75 mg/kg twice daily): yes
